In brackets after ≈: the same amount, converted by molar mass. A value given as a limit tells only on which side of the number the result lay.

Type in all cases: physicochemical
A short description of series [1]: Solubility testing of solid forms in water, SGF, FaSSIF and FeSSIF media. The protocol:
About 15 mg of test material was weighed into a sample vial and then 3.0 mL of water, simulated gastric fluid (SGF), fasted state simulated intestinali fluid (FaSSIF), or fed state simulated intestinal fluid (FeSSIF) media was added. The resulting suspensions were shaken at 37° C. for up to 24 hours. At 0.5, 2, and 24 hours, suspensions were filtered, and test material concentrations in the filtrates were analyzed by HPLC. Residual solids were collected for analysis.

Series [2] can be described thus: Stability testing of blended samples exposed to high temperature and/or humidity for four weeks. The source says: Compound 1, microcrystalline cellulose, D-mannitol, croscarmellose sodium, and magnesium stearate were blended using standard methods. Results from stability testing from exposure of blended samples to high temperature and/or humidity for four weeks are provided in Table 8.

Series [3] is described as follows: Four-week excipient compatibility study under accelerated stress conditions. Conditions: four weeks, 40° C./75% relative humidity and 60° C. accelerated stress conditions.
A short description of series [4]: Powder properties of Form 1 (bulk density, flowability). The source says:
Use of a glidant, disintegrant, and lubricant allowed for acceptable tableting and disintegration characteristics.

[5] abbreviates: FaSSIF, pH of media 6.5, 37° C.
Setting [6] is: FeSSIF, pH of media 5.0, 37° C.
Setting [7] is: FaSSIF, pH of media 6.5, 37° C., listed as Free base (Form 1).
Where [8] appears, read: FeSSIF, pH of media 5.0, 37° C., listed as Free base (Form 1).
Where [9] appears, read: SGF, pH of media 1.2, 37° C., listed as Free base (Form 1).
[10] abbreviates: Water, 37° C., listed as Free base (Form 1).
Where [11] appears, read: FaSSIF, pH of media 6.5, 37° C., listed as Fumarate (Form 8).
The mark [12] stands for this setting: FeSSIF, pH of media 5.0, 37° C., listed as Fumarate (Form 8).
The mark [13] stands for this setting: SGF, pH of media 1.2, 37° C., listed as Fumarate (Form 8).
Where [14] appears, read: Water, 37° C., listed as Fumarate (Form 8).
The mark [15] stands for this setting: SGF, pH of media 1.2, 37° C., listed as 1-Hydroxy-2-naphthoate (Form 13).
[16] abbreviates: Water, 37° C., listed as 1-Hydroxy-2-naphthoate (Form 13).

In the case of `Cn1cncc1[C@@]1(N)c2ccc(C#N)c(c2)COc2cccc(c2)-c2cc(C#N)nc3ccc1cc23` [Amorphous free base, (S)-3-amino-3-(1-methyl-1H-imidazol-5-yl)-6-oxa-2(4,6)-quinolina-1,4(1,3)-dibenzenacyclohexaphane-2^2,4^4-dicarbonitrile], the “Solubility (mg/mL) 2 h” value in series [1] (setting [5]) is given as 0.085 mg/mL (≈ 181 µM); in series [1] (setting [6]) it was 1.22 mg/mL (≈ 2600 µM); in series [1] (SGF, pH of media 1.2, 37° C.), roughly 5 mg/mL (≈ 10700 µM); in series [1] (Water, 37° C.), 0.002 mg/mL (≈ 4.27 µM). Besides, the “Solubility (mg/mL) 24 h” value was 0.09 mg/mL (≈ 192 µM) in series [1] (setting [5]); 1.29 mg/mL (≈ 2750 µM) in series [1] (setting [6]); roughly 5 mg/mL (≈ 10700 µM) in series [1] (SGF, pH of media 1.2, 37° C.); 0.0009 mg/mL (≈ 1.92 µM) in series [1] (Water, 37° C.).
Consider `Cn1cncc1[C@@]1(N)c2ccc(C#N)c(c2)COc2cccc(c2)-c2cc(C#N)nc3ccc1cc23` [Compound 1, (S)-3-amino-3-(1-methyl-1H-imidazol-5-yl)-6-oxa-2(4,6)-quinolina-1,4(1,3)-dibenzenacyclohexaphane-2^2,4^4-dicarbonitrile], for which, in series [2], the “% Purity 60° C.” value is listed as 99.35%. In series [3], the “Compatibility with Tablet Formulation 1 excipients” value is recorded as “no incompatibility”.
Regarding `Cn1cncc1[C@@]1(N)c2ccc(C#N)c(c2)COc2cccc(c2)-c2cc(C#N)nc3ccc1cc23` [Form 1, (S)-3-amino-3-(1-methyl-1H-imidazol-5-yl)-6-oxa-2(4,6)-quinolina-1,4(1,3)-dibenzenacyclohexaphane-2^2,4^4-dicarbonitrile], the bulk density entry in series [4] is “about 0.2 g/mL”. Also, the “Solubility (mg/mL) 2 h” value was 0.0066 mg/mL (≈ 14.1 µM) in series [1] (setting [7]); roughly 0.31 mg/mL (≈ 662 µM) in series [1] (setting [6]); 0.31 mg/mL (≈ 662 µM) in series [1] (setting [8]); roughly 5.04 mg/mL (≈ 10800 µM) in series [1] (SGF, pH of media 1.2, 37° C.); 5.04 mg/mL (≈ 10800 µM) in series [1] (setting [9]); “<LOD” in series [1] (setting [10]). Besides, the “Solubility (mg/mL) 24 h” value is listed as 0.011 mg/mL (≈ 23.5 µM) in series [1] (setting [7]); roughly 0.33 mg/mL (≈ 704 µM) in series [1] (setting [6]); 0.33 mg/mL (≈ 704 µM) in series [1] (setting [8]); roughly 3.67 mg/mL (≈ 7830 µM) in series [1] (SGF, pH of media 1.2, 37° C.); 3.67 mg/mL (≈ 7830 µM) in series [1] (setting [9]); “<LOD” in series [1] (setting [10]).
On to `Cn1cncc1[C@@]1(N)c2ccc(C#N)c(c2)COc2cccc(c2)-c2cc(C#N)nc3ccc1cc23` [Form 8, (S)-3-amino-3-(1-methyl-1H-imidazol-5-yl)-6-oxa-2(4,6)-quinolina-1,4(1,3)-dibenzenacyclohexaphane-2^2,4^4-dicarbonitrile], for which the “Solubility (mg/mL) 2 h” value in series [1] (setting [11]) was 0.16 mg/mL (≈ 342 µM); in series [1] (setting [6]) it was roughly 1.26 mg/mL (≈ 2690 µM); in series [1] (setting [12]) it was 1.26 mg/mL (≈ 2690 µM); in series [1] (SGF, pH of media 1.2, 37° C.), no less than 5 mg/mL; in series [1] (setting [13]), roughly 5 mg/mL (≈ 10700 µM); in series [1] (setting [14]), 0.43 mg/mL (≈ 918 µM). Besides, the “Solubility (mg/mL) 24 h” value in series [1] (setting [11]) is reported as 0.45 mg/mL (≈ 960 µM); in series [1] (setting [6]), roughly 1.15 mg/mL (≈ 2450 µM); in series [1] (setting [12]), 1.15 mg/mL (≈ 2450 µM); in series [1] (SGF, pH of media 1.2, 37° C.), no less than 5 mg/mL; in series [1] (setting [13]), roughly 5 mg/mL (≈ 10700 µM); in series [1] (setting [14]), 0.34 mg/mL (≈ 726 µM).
On to `Cn1cncc1[C@@]1(N)c2ccc(C#N)c(c2)COc2cccc(c2)-c2cc(C#N)nc3ccc1cc23` [Form 13, (S)-3-amino-3-(1-methyl-1H-imidazol-5-yl)-6-oxa-2(4,6)-quinolina-1,4(1,3)-dibenzenacyclohexaphane-2^2,4^4-dicarbonitrile], for which the “Solubility (mg/mL) 2 h” value in series [1] (FaSSIF, pH of media 6.5, 37° C., listed as 1-Hydroxy-2-naphthoate (Form 13)) is reported as 0.086 mg/mL (≈ 184 µM); in series [1] (setting [6]) it was roughly 0.82 mg/mL (≈ 1750 µM); in series [1] (FeSSIF, pH of media 5.0, 37° C., listed as 1-Hydroxy-2-naphthoate (Form 13)), 0.82 mg/mL (≈ 1750 µM); in series [1] (SGF, pH of media 1.2, 37° C.) it was roughly 4.05 mg/mL (≈ 8640 µM); in series [1] (setting [15]), 4.05 mg/mL (≈ 8640 µM); in series [1] (setting [16]), 0.020 mg/mL (≈ 42.7 µM). Also, the “Solubility (mg/mL) 24 h” value in series [1] (SGF, pH of media 1.2, 37° C.) was roughly 4.12 mg/mL (≈ 8790 µM); in series [1] (setting [15]) it was 4.12 mg/mL (≈ 8790 µM); in series [1] (setting [16]), 0.013 mg/mL (≈ 27.7 µM).

(Values after US12466835B1, “Solid forms of macrocyclic compounds, salts and formulations thereof, and methods of preparing and using the same” (Kura Oncology, Inc., priority 2023, dated 2025).)
